In the NIST ThermoML archive (doi:10.1021/je400130b):
“And” between values parts separate entries of the source, which are not always exact repeats. Equal entries are not always repeated.

Experiment: molar heat capacity at constant pressure
Conditions: 101.33 kPa, Crystal, Small (less than 1 g) adiabatic calorimetry

O=S(=O)([O-])[O-].[Cu+2].[Cu+2].[Cu+2].[OH-].[OH-].[OH-].[OH-] [copper(II) tetrahydroxide sulfate]
Conditions	molar heat capacity at constant pressure
4 K	4.402 J/K/mol
4.276 K	3.87 J/K/mol
4.321 K	4.927 J/K/mol
4.467 K	6.058 J/K/mol
4.5 K	6.267 J/K/mol
4.571 K	6.664 J/K/mol
4.751 K	7.35 J/K/mol
4.944 K	8.855 J/K/mol and 8.884 J/K/mol
5 K	9.138 J/K/mol
5.109 K	9.647 J/K/mol
5.218 K	10.19 J/K/mol
5.281 K	10.29 J/K/mol
5.461 K	10.03 J/K/mol
5.496 K	9.756 J/K/mol
5.659 K	8.612 J/K/mol
5.818 K	7.934 J/K/mol
5.864 K	7.741 J/K/mol
6 K	7.452 J/K/mol
6.058 K	7.363 J/K/mol
6.147 K	7.235 J/K/mol
6.298 K	7.044 J/K/mol
6.566 K	6.796 J/K/mol
6.592 K	6.689 J/K/mol
6.889 K	6.159 J/K/mol
7 K	6.491 J/K/mol
7.099 K	6.461 J/K/mol
7.18 K	6.397 J/K/mol
7.46 K	6.264 J/K/mol
7.635 K	6.223 J/K/mol
7.743 K	6.172 J/K/mol
8 K	6.095 J/K/mol
8.024 K	6.079 J/K/mol
8.159 K	6.056 J/K/mol
8.304 K	6.014 J/K/mol
8.585 K	5.956 J/K/mol
8.67 K	5.936 J/K/mol
8.866 K	5.89 J/K/mol
9 K	5.868 J/K/mol
9.144 K	5.841 J/K/mol
9.172 K	5.855 J/K/mol
9.421 K	5.784 J/K/mol
9.668 K	5.798 J/K/mol
9.696 K	5.748 J/K/mol
9.972 K	5.754 J/K/mol
10 K	5.75 J/K/mol
10.16 K	5.732 J/K/mol
10.63 K	5.745 J/K/mol
10.93 K	5.732 J/K/mol
11.68 K	5.739 J/K/mol
11.98 K	5.75 J/K/mol
12.74 K	5.81 J/K/mol
13.03 K	5.85 J/K/mol
13.78 K	5.989 J/K/mol
14.06 K	6.069 J/K/mol
14.8 K	6.285 J/K/mol
15 K	6.341 J/K/mol
15.07 K	6.393 J/K/mol
15.81 K	6.636 J/K/mol
16.07 K	6.722 J/K/mol
16.8 K	6.975 J/K/mol
17.07 K	7.117 J/K/mol
17.8 K	7.522 J/K/mol
18.06 K	7.677 J/K/mol
18.78 K	8.087 J/K/mol
19.04 K	8.238 J/K/mol
19.76 K	8.67 J/K/mol
20 K	8.85 J/K/mol
20.02 K	8.833 J/K/mol
21.22 K	9.779 J/K/mol
21.5 K	9.988 J/K/mol
23.18 K	11.26 J/K/mol
23.46 K	11.52 J/K/mol
25 K	12.91 J/K/mol
25.15 K	13.02 J/K/mol
27.12 K	14.99 J/K/mol
29.09 K	17.14 J/K/mol
30 K	18.13 J/K/mol
31.06 K	19.35 J/K/mol
33.03 K	21.62 J/K/mol
34.81 K	23.66 J/K/mol
35 K	24 J/K/mol
35.01 K	23.95 J/K/mol
36.98 K	26.35 J/K/mol
37.09 K	26.53 J/K/mol
38.96 K	28.94 J/K/mol
39.07 K	29.08 J/K/mol
40 K	30.19 J/K/mol
41.04 K	31.63 J/K/mol
43.02 K	34.11 J/K/mol
44.99 K	36.64 J/K/mol
45 K	36.59 J/K/mol
46.97 K	39.09 J/K/mol
48.95 K	41.56 J/K/mol
50 K	43.07 J/K/mol
50.93 K	44.19 J/K/mol
52.91 K	46.98 J/K/mol
54.89 K	49.62 J/K/mol
55 K	49.46 J/K/mol
56.88 K	51.68 J/K/mol
58.87 K	53.87 J/K/mol
60 K	55.63 J/K/mol
60.86 K	56.7 J/K/mol
62.84 K	59.19 J/K/mol
64.84 K	61.5 J/K/mol
65 K	61.62 J/K/mol
66.82 K	63.78 J/K/mol
68.81 K	66.04 J/K/mol
70 K	67.43 J/K/mol
70.81 K	68.24 J/K/mol
73.31 K	71.15 J/K/mol
75 K	73.06 J/K/mol
76.31 K	74.53 J/K/mol
79.15 K	77.5 J/K/mol
79.33 K	77.85 J/K/mol
80 K	78.53 J/K/mol
82.35 K	81.16 J/K/mol
82.87 K	81.56 J/K/mol
85 K	83.89 J/K/mol
85.92 K	84.81 J/K/mol
87.61 K	86.67 J/K/mol
88.97 K	88.01 J/K/mol
90 K	89.13 J/K/mol
91.38 K	90.45 J/K/mol
92.02 K	91.18 J/K/mol
94.44 K	93.68 J/K/mol
95 K	94.27 J/K/mol
95.08 K	94.4 J/K/mol
97.53 K	96.77 J/K/mol
98.16 K	97.48 J/K/mol
100 K	99.3 J/K/mol
100.62 K	99.85 J/K/mol
101.24 K	100.56 J/K/mol
103.71 K	102.89 J/K/mol
104.33 K	103.67 J/K/mol
106.81 K	105.92 J/K/mol
107.42 K	106.61 J/K/mol
109.92 K	109.04 J/K/mol
110 K	109.1 J/K/mol
110.53 K	109.61 J/K/mol
113.05 K	112.01 J/K/mol
113.64 K	112.58 J/K/mol
116.17 K	114.94 J/K/mol
116.76 K	115.5 J/K/mol
119.31 K	118.07 J/K/mol
119.89 K	118.47 J/K/mol
120 K	118.6 J/K/mol
122.46 K	120.84 J/K/mol
123.02 K	121.58 J/K/mol
125.61 K	123.78 J/K/mol
126.17 K	124.44 J/K/mol
128.76 K	126.79 J/K/mol
129.34 K	127.55 J/K/mol
130 K	128.1 J/K/mol
131.93 K	129.76 J/K/mol
132.5 K	130.3 J/K/mol
135.11 K	132.59 J/K/mol
135.67 K	133.23 J/K/mol
138.3 K	135.82 J/K/mol
138.84 K	136.39 J/K/mol
140 K	137.4 J/K/mol
141.49 K	138.48 J/K/mol
142.03 K	139.28 J/K/mol
